Measurements reported in patent publication US20240308985A1 (Psy Therapeutics, Inc., priority 2021, published 2024).

target: Monoacylglycerol Lipase (MAGL) (Homo sapiens (Human), UniProt Q99685); experiment: MAGL inhibition potency (IC50) assay with 4NPA substrate; assay type: biochemical; details: Method 6: Reaction Biology MAGL enzyme, 6 nM; read-out: MAGL Potency (Detection Method)
From the text: The potency of certain compounds for inhibiting MAGL were obtained using the following assays. The monoacylglycerol lipase inhibitor screening assay kit from Cayman Chemical was used to measure the MAGL potency for the compounds in Table 6 and Table 7. Cayman's Monoacylglycerol Lipase Inhibitor Screening Assay provides a method for screening human MAGL inhibitors. MAGL hydrolyzes 4-nitrophenylacetate resulting in a yellow product, 4-nitrophenol, with an absorbance of 405-412 nm. MAGL Inhibition was measured by the following assay. Monoacylglycerol Lipase (MAGL) inhibition was measured using recombinant MAGL enzyme (aa 2-303 RBC, internal preparation) and the substrate 4-Nitrophenyl acetate (4NPA) (Sigma-Aldrich, N8130). Hydrolysis of the substrate in the presence of the enzyme was measured by absorbance at 405 nm. 10 μL of assay buffer (10 mM Tris pH 7.5, 1 mM EDTA, 0.9% DMSO) was added to a black 384-well non-binding plate with clear bottom (Greiner, 781906) for each reaction. […] DMSO control wells were included for reference. A 10.8 nM (1.8×) MAGL mix in assay buffer was prepared, with 25 μL added to each reaction well, for a final assay concentration of 6 nM. No enzyme wells received 25 μL of buffer. Plate was incubated at room temperature for 30 minutes. 35 mM solution of 4NPA in methanol was prepared daily. A 4.5×4NPA substrate solution was prepared in assay buffer and 10 μL was added to each reaction well, for a final assay concentration of 0.25 mM. Plate was spun for 1 minute at 1000 rpm before measuring absorbance using a CLARIOstar plate reader (BMG Labtech). A kinetic reading at 405 nm was done every minute for 30 minutes. Data was analyzed using the linear slope of the reaction progress curve and the average of the no-enzyme wells (background) was subtracted from the data. The background-subtracted slope data was converted to % activity using the average of wells with enzyme and DMSO vehicle. IC50s were calculated using GraphPad software (Sigmoidal dose response, variable slope equation). […] Table 8 provides potency measurements of MAGL inhibition measured using the Potency Assay of Example 22 above, with the following modifications described in Table C. [table]

Monoacylglycerol Lipase (MAGL), sequence (Q99685 2-303): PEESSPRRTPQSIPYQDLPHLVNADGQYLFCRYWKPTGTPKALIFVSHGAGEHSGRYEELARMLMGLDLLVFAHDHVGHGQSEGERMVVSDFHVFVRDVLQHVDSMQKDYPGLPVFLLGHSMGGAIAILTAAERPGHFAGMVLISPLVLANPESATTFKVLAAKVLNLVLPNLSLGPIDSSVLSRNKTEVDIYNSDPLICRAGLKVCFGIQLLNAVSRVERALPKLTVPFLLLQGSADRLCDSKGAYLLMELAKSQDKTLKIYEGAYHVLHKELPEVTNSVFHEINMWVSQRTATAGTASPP

Row | Structure (SMILES) | IC50
1 | Cc1ccc(F)cc1-c1cc(C)n(C2CC3(C2)CN(C(=O)c2cc(O)ccc2F)C3)n1 [Compound 446, (2-fluoro-5-hydroxyphenyl){6-[3-(5-fluoro-2-tolyl)-5-methyl-1-pyrazolyl]-2-aza-2-spiro[3.3]heptyl}methanone] | < 50 nM
2 | Cc1ccc(F)cc1-c1cc(C)n(C2CC3(C2)CN(C(=O)c2ccc(F)cc2OC2CC2)C3)n1 [Compound 450, (2-cyclopropoxy-4-fluorophenyl){6-[3-(5-fluoro-2-tolyl)-5-methyl-1-pyrazolyl]-2-aza-2-spiro[3.3]heptyl}methanone] | 150 to 500 nM
3 | Cc1ccc(F)cc1-c1cc(C)n(C2CC3(C2)CN(C(=O)c2ccc(F)cc2OC(F)F)C3)n1 [Compound 455, (2-difluoromethoxy-4-fluorophenyl){6-[3-(5-fluoro-2-tolyl)-5-methyl-1-pyrazolyl]-2-aza-2-spiro[3.3]heptyl}methanone] | 50 to 150 nM

Continued, values first:

Row | IC50 | Structure (SMILES)
4 | 150 to 500 nM | Cc1ccccc1-c1nn(C2CC3(C2)CN(C(=O)c2ccc(F)cc2OC2CC2)C3)cc1C [Compound 447, (2-cyclopropoxy-4-fluorophenyl){6-[4-methyl-3-(o-tolyl)-1-pyrazolyl]-2-aza-2-spiro[3.3]heptyl}methanone]
5 | 50 to 150 nM | Cc1cn(C2CC3(C2)CN(C(=O)c2ccc(F)cc2OC2CC2)C3)nc1-c1ccccc1C(F)(F)F [Compound 448, (2-cyclopropoxy-4-fluorophenyl)(6-{4-methyl-3-[o-(trifluoromethyl)phenyl]-1-pyrazolyl}-2-aza-2-spiro[3.3]heptyl)methanone]
6 | 150 to 500 nM | Cc1ccc(F)cc1-c1nn(C2CC3(C2)CN(C(=O)c2ccc(F)cc2OC2CC2)C3)cc1C [Compound 449, (2-cyclopropoxy-4-fluorophenyl){6-[3-(5-fluoro-2-tolyl)-4-methyl-1-pyrazolyl]-2-aza-2-spiro[3.3]beptyl}methanone]
7 | 1000 to 5100 nM | Cc1cnn(C2CC3(C2)CN(C(=O)c2ccc(F)cc2OC2CC2)C3)c1-c1ccccc1F [Compound 452, (2-cyclopropoxy-4-fluorophenyl){6-[5-(o-fluorophenyl)-4-methyl-1-pyrazolyl]-2-aza-2-spiro[3.3]beptyl}methanone]

same assay, conditions: Method 6: Reaction Biology MAGL enzyme, 6 nM; read-out: Potency (MAGL inhibition)

Row | IC50 | Structure (SMILES)
8 | > 10000 nM | O=C(c1cc(O)ccc1F)N1CC2(CC(n3cc(C4CC4)c(-c4ccccc4Cl)n3)C2)C1 [Compound 445]

same assay, conditions: Method 11: Reaction Biology MAGL enzyme, 25 nM (name: Conc 20); read-out: MAGL Potency (Detection Method)

Row | Structure (SMILES) | IC50
9 | Cc1ccc(F)cc1-c1cc(C)n(C2CC3(C2)CN(C(=O)c2ccc(F)cc2OC(F)(F)F)C3)n1 [Compound 454, {6-[3-(5-fluoro-2-tolyl)-5-methyl-1-pyrazolyl]-2-aza-2-spiro[3.3]heptyl}(4-fluoro-2-trifluoromethoxyphenyl)methanone] | 1000 to 5100 nM
10 | COc1cc(F)ccc1C(=O)N1CC2(CC(n3nc(-c4cc(F)ccc4C)cc3C(F)(F)F)C2)C1 [Compound 458, (4-fluoro-2-methoxyphenyl){6-[3-(5-fluoro-2-tolyl)-5-(trifluoromethyl)-1-pyrazolyl]-2-aza-2-spiro[3.3]heptyl}methanone] | 1000 to 5100 nM
11 | CCOc1cc(F)ccc1C(=O)N1CC2(CC(n3nc(C)cc3-c3ccccc3C)C2)C1 [Compound 460] | 1000 to 5100 nM
12 | CCOc1cc(F)ccc1C(=O)N1CC2(CC(n3nc(-c4ccccc4C)cc3C)C2)C1 [Compound 461, (2-ethoxy-4-fluorophenyl){6-[5-methyl-3-(o-tolyl)-1-pyrazolyl]-2-aza-2-spiro[3.3]heptyl}methanone] | 500 to 1000 nM
13 | CCOc1cc(F)ccc1C(=O)N1CC2(CC(n3nc(C)cc3-c3cc(F)ccc3C)C2)C1 [Compound 462, (2-ethoxy-4-fluorophenyl){6-[5-(5-fluoro-2-tolyl)-3-methyl-1-pyrazolyl]-2-aza-2-spiro[3.3]heptyl}metbanone] | 1000 to 5100 nM
14 | CCOc1cc(F)ccc1C(=O)N1CC2(CC(n3nc(-c4cc(F)ccc4C)cc3C)C2)C1 [Compound 463, (2-ethoxy-4-fluorophenyl){6-[3-(5-fluoro-2-tolyl)-5-methyl-1-pyrazolyl]-2-aza-2-spiro[3.3]heptyl}methanone] | 500 to 1000 nM
15 | Cc1cc(-c2cc(F)ccc2C)n(C2CC3(C2)CN(C(=O)c2ccc(F)cc2OCC(F)(F)F)C3)n1 [Compound 466] | 500 to 1000 nM
16 | Cc1ccc(F)cc1-c1cc(C)n(C2CC3(C2)CN(C(=O)c2ccc(F)cc2OCC(F)(F)F)C3)n1 [Compound 467, {6-[3-(5-fluoro-2-tolyl)-5-methyl-1-pyrazolyl]-2-aza-2-spiro[3.3]heptyl} [4-fluoro-2-(2,2,2-trifluoroethoxy)phenyl]methanone] | 150 to 500 nM

Other lines, results leading:

Row | IC50 | Structure (SMILES)
17 | 500 to 1000 nM | Cc1ccc(F)cc1-c1cc(C(F)(F)F)n(C2CC3(C2)CN(C(=O)c2ccc(F)cc2OC2CC2)C3)n1 [Compound 456, (2-cyclopropoxy-4-fluorophenyl){6-[3-(5-fluoro-2-tolyl)-5-(trifluoromethyl)-1-pyrazolyl]-2-aza-2-spiro[3.3]heptyl}methanone]
18 | 1000 to 5100 nM | Cc1ccc(F)cc1-c1cc(C(F)(F)F)nn1C1CC2(C1)CN(C(=O)c1ccc(F)cc1OC1CC1)C2 [Compound 457, (2-cyclopropoxy-4-fluorophenyl){6-[5-(5-fluoro-2-tolyl)-3-(trifluoromethyl)-1-pyrazolyl]-2-aza-2-spiro[3.3]heptyl}methanone]
19 | 500 to 1000 nM | Cc1cc(-c2ccccc2C)n(C2CC3(C2)CN(C(=O)c2ccc(F)cc2OCC(F)(F)F)C3)n1 [Compound 464, [4-fluoro-2-(2,2,2-trifluoroethoxy)phenyl]{6-[3-methyl-5-(o-tolyl)-1-pyrazolyl]-2-aza-2-spiro[3.3]heptyl}methanone]
20 | 150 to 500 nM | Cc1ccccc1-c1cc(C)n(C2CC3(C2)CN(C(=O)c2ccc(F)cc2OCC(F)(F)F)C3)n1 [Compound 465, [4-fluoro-2-(2,2,2-trifluoroethoxy)phenyl]{6-[5-methyl-3-(o-tolyl)-1-pyrazolyl]-2-aza-2-spiro[3.3]heptyl}methanone]

same assay, conditions: Method 12: Reaction Biology MAGL enzyme, 15 nM; read-out: MAGL Potency (Detection Method)

Row | IC50 | Structure (SMILES)
21 | < 50 nM | Cc1ccc(F)c(-c2nn(C3CC4(C3)CN(C(=O)c3cc(O)ccc3F)C4)cc2C(F)(F)F)c1 [Compound 475, (2-fluoro-5-hydroxyphenyl){6-[3-(2-fluoro-5-tolyl)-4-(trifluoromethyl)-1-pyrazolyl]-2-aza-2-spiro[3.3]heptyl}methanone]
22 | < 50 nM | O=C(c1cc(O)ccc1F)N1CC2(CC(n3cc(C4CC4)c(-c4ccccc4C(F)(F)F)n3)C2)C1 [Compound 488, (6-{4-cyclopropyl-3-[o-(trifluoromethyl)phenyl]-1-pyrazolyl}-2-aza-2-spiro[3.3]heptyl)(2-fluoro-5-hydroxyphenyl)methanone]
23 | 1000 to 5100 nM | O=C(c1c(F)cccc1OC1CC1)N1CC2(CC(n3cc(C(F)(F)F)c(-c4ccccc4F)n3)C2)C1 [Compound 522, (2-cyclopropoxy-6-fluorophenyl){6-[3-(o-fluorophenyl)-4-(trifluoromethyl)-1-pyrazolyl]-2-aza-2-spiro[3.3]heptyl}methanone]
24 | 1000 to 5100 nM | O=C(c1ccc(F)cc1OC1CC1)N1CC2(CC(n3ncc(C(F)(F)F)c3-c3ccccc3F)C2)C1 [Compound 523, (2-cyclopropoxy-4-fluorophenyl) {6-[5-(o-fluorophenyl)-4-(trifluoromethyl)~1-pyrazolyl]-2-aza-2-spiro[3.3]heptyl}methanone]
25 | 150 to 500 nM | O=C(c1ccc(F)cc1OC1CC1)N1CC2(CC(n3cc(C(F)(F)F)c(-c4ccccc4F)n3)C2)C1 [Compound 524, (2-cyclopropoxy-4-fluorophenyl){6-[3-(o-fluorophenyl)-4-(trifluoromethyl)-1-pyrazolyl]-2-aza-2-spiro[3.3]heptyl}methanone]

same assay, conditions: Method 12: Reaction Biology MAGL enzyme, 15 nM; read-out: Potency (MAGL inhibition)

Row | IC50 | Structure (SMILES)
26 | > 10000 nM | Cc1cn(C2CC3(C2)CN(C(=O)c2cc(O)ccc2C(F)(F)F)C3)nc1-c1ccccc1F [Compound 495]
27 | > 10000 nM | O=C(c1c(F)cccc1OC1CC1)N1CC2(CC(n3ncc(C(F)(F)F)c3-c3ccccc3F)C2)C1 [Compound 521]

Row | Structure (SMILES) | IC50
28 | Cc1cnn(C2CC3(C2)CN(C(=O)c2cc(O)ccc2C(F)(F)F)C3)c1-c1ccccc1F [Compound 494] | > 10000 nM

same assay, conditions: Method 13: Reaction Biology MAGL enzyme, 12 nM; read-out: MAGL Potency (Detection Method)

Row | IC50 | Structure (SMILES)
29 | < 50 nM | Cc1cn(C2CC3(C2)CN(C(=O)c2cc(O)ccc2F)C3)nc1-c1cc(F)ccc1F [Compound 477, {6-[3-(2,5-difluorophenyl)-4-methyl-1-pyrazolyl]-2-aza-2-spiro[3.3]heptyl}(2-fluoro-5-hydroxyphenyl)methanone]
30 | 150 to 500 nM | O=C(c1cc(O)ccc1F)N1CC2(CC(n3nc(C(F)(F)F)cc3-c3ccccc3C(F)(F)F)C2)C1 [Compound 487, (2-fluoro-5-hydroxyphenyl)(6-{3-(trifluoromethyl)-5-[o-(trifluoromethyl)phenyl]-1-pyrazolyl}-2-aza-2-spiro[3.3]heptyl)methanone]
